# In PubChem BioAssay AID1996:
# Conditions: buffer; pH 7.4; 200.0 µM
row,SMILES,solubility kinetic
1,O=C(NCCc1ccncc1)Nc1ccc(Cl)c(Cl)c1,> 0.0465 mg/mL
2,COc1ccc(OC)c2nc(-c3ccc4c(c3)OCO4)ccc12,< 0.0007 mg/mL
3,COCCn1c(C)cc(C(=O)CN2c3cccc4cccc(c34)S2(=O)=O)c1C,0.0035 mg/mL
4,CS(=O)(=O)N1CCCC(C(=O)Nc2ccc(F)c(F)c2)C1 (stereo unspecified),> 0.0478 mg/mL
5,CC(Sc1cccc[n+]1[O-])c1ccccc1 (stereo unspecified),> 0.0347 mg/mL
6,Cc1ccc(S(=O)(=O)NCc2ccncc2)c(C)c1C,0.0347 mg/mL
7,Cc1cc(C)cc(NC(=O)C2CC3CCC2C3)c1 (stereo unspecified),0.0068 mg/mL
8,O=C(/C=C/c1cccs1)N1CCN(c2ccccc2)CC1,0.0016 mg/mL
9,Cc1nc2c(C)cccc2c2c1CCS2,0.0005 mg/mL
10,CSCCNCc1c(C(=O)N2CCOCC2)nc2c(C)cccn12,0.0461 mg/mL
11,COc1cccc(-c2nc(NC3CCCC3)c3ccccc3n2)c1O,< 0.0002 mg/mL
12,CSc1ccc(NC(=O)NCc2ccccc2)cc1,0.0014 mg/mL
13,CCn1c(C)nc2cc(C(=O)OC)ccc21,> 0.0327 mg/mL
14,Cn1c2ccc(F)cc2c2ncn(Cc3ccccn3)c(=O)c21,0.0079 mg/mL
15,O=C(COc1ccccc1F)N1CCCc2ccccc21,> 0.0428 mg/mL
16,O=C(COc1cccnc1[N+](=O)[O-])Nc1cccc2ccccc12,0.0227 mg/mL
17,CCCNC(=O)C1CC(=O)N(c2ccc(OCC)cc2)C1 (stereo unspecified),> 0.0436 mg/mL
18,Cc1cccc(C(=O)Nc2ccnc(-c3cccnc3)n2)c1,0.0054 mg/mL
19,CCCOc1ccc(C(=O)NCCC(=O)NCCCC(=O)O)cc1,> 0.0505 mg/mL
20,Cc1c(N)cc(N)cc1C(=O)O,> 0.0249 mg/mL
21,CCOc1ccc(-c2cn3ccccc3n2)cc1,0.0181 mg/mL

row,SMILES,solubility kinetic
1,COc1ccc(C(=O)NC23CC4CC(CC(C4)C2)C3)cc1OC,0.0029 mg/mL
2,CC(NC(=O)c1cccs1)c1ccc(Cl)cc1 (stereo unspecified),0.0098 mg/mL
3,O=C(COC(=O)/C=C/c1ccc(F)cc1)NCc1cccs1,0.0087 mg/mL
4,Nc1c(C(=O)N2CCCC2)sc2nc3c(cc12)CCCCCC3,0.0032 mg/mL
5,CC(=O)c1ccc(NC(=O)COC(=O)C2C3CC4OC(=O)C2C4C3)cc1 (stereo unspecified),> 0.0536 mg/mL
6,CC(C)S(=O)(=O)c1csc(NC(=O)Nc2ccc(Cl)cc2)c1,0.0028 mg/mL
7,CCC1(C)CC(C(N)=S)CCO1 (stereo unspecified),0.0171 mg/mL
8,CC1CC(C)CN(CC(=O)N2CCOCC2)C1.Cl (stereo unspecified),> 0.0415 mg/mL
9,CNC(=O)CC1C(=O)N(C)C(=S)N1NC(=O)c1ccccc1 (stereo unspecified),> 0.0481 mg/mL
10,C=CCn1c(SCC#N)nnc1-c1ccc2ncccc2c1,> 0.0461 mg/mL
11,CCOC(=O)c1cnc(SCC(=O)OC)nc1N,> 0.0407 mg/mL
12,Cc1ccc(CNC(=O)c2cc3ccccc3oc2=O)cc1,0.0012 mg/mL
13,O=C(CCC(=O)c1ccccc1)NCCOc1ccccc1,> 0.0446 mg/mL
14,CC1CCCCC1NC1=NCCCS1 (stereo unspecified),> 0.0319 mg/mL
15,COc1cccc2c(=O)c3c([nH]c12)OC(C)(C)C3,> 0.0368 mg/mL
16,COc1ccc(C(=O)NCCCNC(=O)c2ccc(C)nc2)cc1,> 0.0491 mg/mL
17,COc1cc(OC)c(C(=O)O/N=C(\N)c2ccc(C)cc2)cc1OC,> 0.0517 mg/mL
18,CN1CC(=O)N2[C@H](c3ccc4c(c3)OCO4)c3[nH]c4ccccc4c3C[C@@H]2C1=O,0.0032 mg/mL
19,O=C(Nc1ccc(F)cc1)C1COc2ccccc2O1 (stereo unspecified),0.0398 mg/mL
20,COc1ccccc1NC(=O)C1CCCN1C(=O)NC1CCCCC1 (stereo unspecified),0.0424 mg/mL
21,Cn1ncc2c(=O)[nH]cnc21,> 0.0225 mg/mL

row,SMILES,solubility kinetic
1,CC(=O)Nc1ccccc1OCC(=O)NC1CCCCC1C (stereo unspecified),> 0.0457 mg/mL
2,O=C1CCCN1CCCNS(=O)(=O)c1cccs1,> 0.0433 mg/mL
3,O=C(Nc1ccccc1C(=O)Nc1ccccc1)c1ccccc1Br,0.0007 mg/mL
4,Cc1c(C(=O)N2CCc3ccccc3C2)oc2ccccc12,0.0075 mg/mL
5,N#Cc1ccc(COC(=O)c2cccnc2Cl)cc1,0.0269 mg/mL
6,CC(NCc1ccccc1O)C12CC3CC(CC(C3)C1)C2.Cl (stereo unspecified),0.0419 mg/mL
7,Cc1nonc1OCCN1CCN(c2ccc([N+](=O)[O-])cc2)CC1,0.0426 mg/mL
8,COc1ccc(CN2CC[C@@H](N3CCOCC3)[C@H](O)C2)cc1F,0.0433 mg/mL
9,CCN(C(=O)CSc1cccc[n+]1[O-])c1ccccc1,> 0.0433 mg/mL
10,COc1ccc(Cn2c(=O)cc(N)n(-c3ccccc3C)c2=O)cc1,> 0.0506 mg/mL
11,CN(C1CCCCC1)S(=O)(=O)c1cn(C)c(=O)n(C)c1=O,> 0.0473 mg/mL
12,Cc1ccc(NC(=O)c2ccc(=O)[nH]c2)cc1S(=O)(=O)N1CCCCCC1,> 0.0584 mg/mL
13,CCOC(=O)C1CCN(C(=O)c2cc3ccccc3oc2=O)CC1,0.0484 mg/mL
14,O=C(NCc1ccc2c(c1)OCO2)Nc1ccc(Cl)cc1,0.0008 mg/mL
15,NS(=O)(=O)c1ccc(N2CCN(C(=O)c3ccco3)CC2)nc1,> 0.0505 mg/mL
16,CC(=O)C1=C(O)C(=O)N(Cc2ccccc2)C1c1ccc(F)cc1 (stereo unspecified),> 0.0488 mg/mL
17,CCOC(=O)CNC(=O)C1COc2ccccc2O1 (stereo unspecified),> 0.0398 mg/mL
18,COC(=O)c1ccc(NC(=O)c2cccc(C)c2)cc1,0.0054 mg/mL
19,CC1CCCN(CC(=O)N2c3ccccc3Sc3ccccc32)C1 (stereo unspecified),0.0317 mg/mL
